According to ChEMBL document CHEMBL4699484, “Discovery of small molecule FLT3 inhibitors that are able to overcome drug-resistant mutations” (Bioorg Med Chem Lett, 2020):

Experiments:
[1] = tested on: BaF3; assay: cells; conditions: Mus musculus
Description: Cytotoxicity against mouse BaF3 cells assessed as reduction in cell viability

[2] = target: Receptor-type tyrosine-protein kinase FLT3 (Homo sapiens, UniProt P36888, F691L/ITD); type: cell-based, BaF3
Description: Inhibition of FLT3 ITD/F691L double mutant (unknown origin) expressed in mouse BaF3 cells

[3] = target: T1, Receptor-type tyrosine-protein kinase FLT3 (Homo sapiens, UniProt P36888, ITD); type: cell-based, BaF3
Description: Inhibition of FLT3 ITD mutant (unknown origin) expressed in mouse BaF3 cells

[4] = target: Receptor-type tyrosine-protein kinase FLT3 (Homo sapiens, UniProt P36888, D835Y/ITD); type: cell-based, BaF3
Description: Inhibition of FLT3 ITD/D835Y double mutant (unknown origin) expressed in mouse BaF3 cells

[5] = target: T1, Receptor-type tyrosine-protein kinase FLT3; assay: Inhibition of human partial length FLT3 ITD mutant expressed in bacterial expression system by Kinomescan method
[6] = (§1) Inhibition of Wnt/beta-Catenin signaling (unknown origin) expressed in STF3a cells incubated for 24 hrs by STF luciferase reporter gene assay; type: cell-based; conditions: Homo sapiens
[7] = tested on: STF3A; assay: as §1; type: cell-based; conditions: Homo sapiens

| IC50 [1] | IC50 [2] | IC50 [3] | IC50 [4] | IC50 [6] | Structure (SMILES) | IC50 [5] | inhibition [7] |
| --- | --- | --- | --- | --- | --- | --- | --- |
| 2080 nM | 18.6 nM | 0.015 nM | 12.4 nM |  | CC(C)(C)c1cc(NC(=O)Nc2ccc(Oc3ccnc4nc[nH]c34)c(F)c2)no1 |  |  |
| 1100 nM | 9.93 nM | 3.22 nM | 5.09 nM |  | COc1cc2c(Oc3ccc(NC(=O)Nc4cc(C(C)(C)C)on4)cc3F)ccnc2cc1OCCCN1CCOCC1 |  |  |
| 1130 nM | 11.9 nM | 4.73 nM | 5.35 nM |  | COCCOc1cc2nccc(Oc3ccc(NC(=O)Nc4cc(C(C)(C)C)on4)cc3F)c2cc1OC |  |  |
| 3000 nM | 20.8 nM | 4.91 nM | 10.1 nM |  | COCCOc1cc2c(Oc3ccc(NC(=O)Nc4cc(C(C)(C)C)on4)cc3F)ccnc2cc1OC |  |  |
| 9200 nM | 5270 nM | 2650 nM | 3540 nM |  | COc1cc2c(Oc3ccc(NC(=O)Nc4cc(C(C)(C)C)on4)cc3F)ccnc2cc1OCC1CO1 (stereo not given) |  |  |
| 4940 nM | 54.3 nM | 19.2 nM | 14.9 nM |  | CCCOc1cc2nccc(Oc3ccc(NC(=O)Nc4cc(C(C)(C)C)on4)cc3F)c2cc1OC |  |  |
| 1210 nM | 5.86 nM | 0.072 nM | 3.48 nM | < 500 nM | COc1cc2nccc(Oc3ccc(NC(=O)Nc4cc(C(C)(C)C)on4)cc3F)c2cc1OC |  | Dose-dependent effect |
| > 10000 nM | > 10000 nM | 1260 nM | > 10000 nM |  | CC(C)(C)c1cc(NC(=O)Nc2ccc(Oc3nccc4ccccc34)c(F)c2)no1 |  |  |
| 3140 nM | 32.6 nM | 3.08 nM | 15.5 nM |  | CCOc1cc2nccc(Oc3ccc(NC(=O)Nc4cc(C(C)(C)C)on4)cc3F)c2cc1OCC |  |  |
| 4820 nM | 127 nM | 36.5 nM | 62.4 nM |  | COc1cc2c(Oc3ccc(NC(=O)Nc4cc(C(C)(C)C)on4)cc3F)ccnc2cc1OCC(C)C |  |  |
| > 1990 nM | 13.8 nM | 1.51 nM | 7.93 nM |  | COc1cc2ncnc(Oc3ccc(NC(=O)Nc4cc(C(C)(C)C)on4)cc3F)c2cc1OC |  |  |
| 6500 nM | 38.9 nM | 37.2 nM | 27.9 nM |  | CC(C)(C)c1cc(NC(=O)Nc2ccc(Oc3ccnc4cc(OCC5CCCC5)c(OCC5CCCC5)cc34)c(F)c2)no1 |  |  |
| 5560 nM | 189 nM | 66.5 nM | 104 nM |  | COc1cc2c(Oc3ccc(NC(=O)Nc4cc(C(C)(C)C)on4)cc3F)ccnc2cc1OCC1CCCC1 |  |  |
| 1840 nM | 16.8 nM | 5.77 nM | 6.28 nM |  | COc1cc2nccc(Oc3ccc(NC(=O)Nc4cc(C(C)(C)C)on4)cc3F)c2cc1OCCCN1CCOCC1 |  |  |
| 7770 nM | 296 nM | 76.1 nM | 160 nM |  | CCCOc1cc2c(Oc3ccc(NC(=O)Nc4cc(C(C)(C)C)on4)cc3F)ccnc2cc1OC |  |  |
| 1650 nM | 8.31 nM | 5.2 nM | 5.96 nM |  | CCOc1cc2nccc(Oc3ccc(NC(=O)Nc4cc(C(C)(C)C)on4)cc3F)c2cc1OC |  |  |
| 3040 nM | 1020 nM | 1.2 nM | 64.2 nM |  | COc1cc2c(Oc3ccc(NC(=O)Nc4cc(C(C)(C)C)on4)cc3F)ncnc2cn1 |  |  |
| 2030 nM | 23.1 nM | 6.88 nM | 10.6 nM |  | COc1cc2nccc(Oc3ccc(NC(=O)Nc4cc(C(C)(C)C)on4)cc3F)c2cc1OC(C)C |  |  |
| 2880 nM | 29.9 nM | 7.25 nM | 10.9 nM |  | CCOc1cc2c(Oc3ccc(NC(=O)Nc4cc(C(C)(C)C)on4)cc3F)ccnc2cc1OC |  |  |
| 2000 nM | 16 nM | 5.17 nM | 11 nM |  | COCCOc1cc2nccc(Oc3ccc(NC(=O)Nc4cc(C(C)(C)C)on4)cc3F)c2cc1OCCOC |  |  |
| 2620 nM | 35 nM | 0.292 nM | 34.3 nM |  | CC(C)(C)c1cc(NC(=O)Nc2ccc(Oc3ccnc4[nH]ncc34)c(F)c2)no1 |  |  |
| > 10000 nM | 1020 nM | 141 nM | 741 nM |  | CC(C)(C)c1cc(NC(=O)Nc2ccc(Oc3ccnc4[nH]ccc34)c(F)c2)no1 |  |  |

| Structure (SMILES) | IC50 [1] | IC50 [2] | IC50 [3] | IC50 [4] | IC50 [6] | IC50 [5] | inhibition [7] |
| --- | --- | --- | --- | --- | --- | --- | --- |
| CC(C)(C)c1cc(NC(=O)Nc2ccc(Oc3ncnc4[nH]ncc34)c(F)c2)no1 | 3160 nM | 108 nM | 0.038 nM | 130 nM |  | 1.3 nM |  |
